Experimental data: PubChem BioAssay AID248 (DTP/NCI, 2004)
Toxic doses and inconclusive results are not listed. Rule as the data show it: active = T/C of 150% or more; inactive = T/C below 125%.

System: L1210 leukemia ip in BDF1 mice, survival T/C
Experiment: NCI In Vivo Anticancer Drug Screen. Data for tumor model L1210 Leukemia (intraperitoneal) in B6D2F1 (BDF1) mice
Details: endpoint: mean survival time, higher = longer survival
In short: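 Survival endpoint. Drug-treated group vs vehicle group, expressed as T divided by C. Tumor passaged by transplantation.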

[1] = dose: 100.0 mg/kg/injection, schedule: Q04DX002 (ip), vehicle: Klucel (hydroxypropylcellulose) (HPC)
[2] = dose: 100.0 mg/kg/injection, schedule: Q04DX003 (ip), vehicle: Klucel (hydroxypropylcellulose) (HPC)
[3] = dose: 200.0 mg/kg/injection, schedule: Q04DX003 (ip), vehicle: Klucel (hydroxypropylcellulose) (HPC)
[4] = dose: 50.0 mg/kg/injection, schedule: Q01DX009 (ip), vehicle: Klucel (hydroxypropylcellulose) (HPC)
[5] = dose: 100.0 mg/kg/injection, schedule: Q01DX001 (ip), vehicle: saline with Tween-80
[6] = dose: 100.0 mg/kg/injection, schedule: Q01DX001 (ip), vehicle: saline
[7] = dose: 100.0 mg/kg/injection, schedule: Q01DX009 (ip), vehicle: Klucel (hydroxypropylcellulose) (HPC)
[8] = dose: 200.0 mg/kg/injection, schedule: Q01DX001 (ip), vehicle: saline

Measured: T/C

Cc1nc2ccccc2c(C(=O)O)c1C
inactive: dose: 100.0 mg/kg/injection, schedule: Q04DX003 (ip), vehicle: saline 102 % of control | dose: 200.0 mg/kg/injection, schedule: Q04DX003 (ip), vehicle: saline 96 % of control | dose: 400.0 mg/kg/injection, schedule: Q04DX003 (ip), vehicle: saline 96 % of control

CC(=O)Nc1ccc(S(=O)(=O)Nc2cc(C)c(C)cc2C)cc1
inactive: [1] 103 % of control | dose: 200.0 mg/kg/injection, schedule: Q04DX002 (ip), vehicle: Klucel (hydroxypropylcellulose) (HPC) 91 % of control

CCCCCCCCCCCCCCCCOc1ccc(C(=O)OC)cc1N
inactive: [2] 102 % of control | [3] 104 % of control | dose: 400.0 mg/kg/injection, schedule: Q04DX003 (ip), vehicle: Klucel (hydroxypropylcellulose) (HPC) 96 % of control

O=[N+]([O-])c1ccc(N2N=NC3CC/C(=C\c4cccc([N+](=O)[O-])c4)C32N2CCOCC2)cc1 (stereo not given)
inactive: dose: 25.0 mg/kg/injection, schedule: Q04DX002 (ip), vehicle: Klucel (hydroxypropylcellulose) (HPC) 104 % of control | dose: 50.0 mg/kg/injection, schedule: Q04DX002 (ip), vehicle: Klucel (hydroxypropylcellulose) (HPC) 101 % of control | [1] 88 % of control

Cn1c(=O)c(Br)c(N)c2ccccc21
inactive: dose: 100.0 mg/kg/injection, schedule: Q01DX001 (ip), vehicle: other 101 % of control | dose: 200.0 mg/kg/injection, schedule: Q01DX001 (ip), vehicle: other 101 % of control | dose: 400.0 mg/kg/injection, schedule: Q01DX001 (ip), vehicle: other 101 % of control

O=C1NCN(c2ccccc2)C12CCN(Cc1nc3cc([N+](=O)[O-])ccc3n1-c1ccccc1)CC2
inactive: dose: 100.0 mg/kg/injection, schedule: Q01DX001 (ip), vehicle: Klucel (hydroxypropylcellulose) (HPC) 86 % of control | dose: 200.0 mg/kg/injection, schedule: Q01DX001 (ip), vehicle: Klucel (hydroxypropylcellulose) (HPC) 93 % of control | dose: 400.0 mg/kg/injection, schedule: Q01DX001 (ip), vehicle: Klucel (hydroxypropylcellulose) (HPC) 99 % of control

CC(C(=O)O)N1C(=O)C2C3C=CC(C3)C2C1=O (stereo not given)
inactive: dose: 100.0 mg/kg/injection, schedule: Q04DX003 (ip), vehicle: saline with Tween-80 94 % of control | dose: 200.0 mg/kg/injection, schedule: Q04DX003 (ip), vehicle: saline with Tween-80 102 % of control | dose: 400.0 mg/kg/injection, schedule: Q04DX003 (ip), vehicle: saline with Tween-80 97 % of control

Clc1nc2nc(C(Cl)(Cl)Cl)[nH]c2nc1Cl
inactive: dose: 6.25 mg/kg/injection, schedule: Q01DX009 (ip), vehicle: Klucel (hydroxypropylcellulose) (HPC) 103 % of control | dose: 12.5 mg/kg/injection, schedule: Q01DX009 (ip), vehicle: Klucel (hydroxypropylcellulose) (HPC) 102 % of control | dose: 25.0 mg/kg/injection, schedule: Q01DX009 (ip), vehicle: Klucel (hydroxypropylcellulose) (HPC) 115 % of control | [4] 105 % of control | [2] 97 % of control | [3] 100 % of control

[Br][Sn]([Br])([CH]1CCCCC1)[CH]1CCCCC1
inactive: dose: 9.38 mg/kg/injection, schedule: Q01DX001 (ip), vehicle: other 91 % of control | dose: 18.75 mg/kg/injection, schedule: Q01DX001 (ip), vehicle: other 93 % of control

CCC(CCc1ccc(OC)c(OC)c1)C(=O)O (stereo not given)
inactive: [5] 93 % of control | dose: 200.0 mg/kg/injection, schedule: Q01DX001 (ip), vehicle: saline with Tween-80 98 % of control | dose: 400.0 mg/kg/injection, schedule: Q01DX001 (ip), vehicle: saline with Tween-80 98 % of control

O=c1cc(CO)[nH]c(=O)[nH]1
inactive: dose: 50.0 mg/kg/injection, schedule: Q01DX001 (ip), vehicle: saline 104 % of control | [4] 94 % of control | [6] 102 % of control | [7] 90 % of control | [8] 98 % of control | dose: 200.0 mg/kg/injection, schedule: Q01DX009 (ip), vehicle: Klucel (hydroxypropylcellulose) (HPC) 97 % of control | dose: 400.0 mg/kg/injection, schedule: Q01DX001 (ip), vehicle: saline 98 % of control

CC(C)=CCC(CC=C(C)C)c1ccncc1 (tested in a mixture with another compound)
inactive: [6] 96 % of control | [8] 98 % of control

O=C1C2(c3ccccc3)CCC1(c1ccccc1)C(c1ccccc1)=C2c1ccccc1
inactive: [5] 93 % of control

c1cc2cc3c(cc2cc1CC1NCCc2cc4c(cc21)OCO4)OCO3 (stereo not given)
inactive: [4] 88 % of control | [7] 101 % of control | [2] 100 % of control | [3] 94 % of control
